In the test the test system is SARS-CoV-2. Nature of the test: microbe, parasite or virus in culture. The conditions noted are these: Severe acute respiratory syndrome coronavirus 2, Caco-2, 48 h; for inhibition at 10 µM: read-out: % Inh. (% Inhibition of SARS-CoV-2).

Consider 64 compounds from patent US20230126310A1 (priority 2020, published 2023).

Structures can show the parent of a compound that is named as a salt. Where two headings read alike, the source gives them in different places. Peptide text beside a SMILES is read from it.

The inhibition is the drop in the measured response relative to a control, in per cent. Take `O=C1NCCN1CCN1CCC(c2cn(-c3ccc(F)cc3)c3ccc(Cl)cc23)CC1` [sertindole]: the inhibition at 10 µM is 90.3%. As for `CCc1cc2cc(OC)c(OC)cc2c(Cc2ccccc2)n1` [Moxaverine], the inhibition at 10 µM turned out to be 68.7%. With `O=C(O)c1ccc(OCCn2ccnc2)cc1` [Dazoxiben], the inhibition at 10 µM was found to be 56%. As to `c1ccc(C(O[C@@H]2CCCN(CCc3ccc4c(c3)OCO4)C2)c2ccccc2)cc1` [zamifenacin], the inhibition at 10 µM is 58.3%. Regarding `C=CC(=O)Nc1cccc(Nc2nc(Nc3ccc(N4CCN(C(C)=O)CC4)cc3OC)ncc2C(F)(F)F)c1` [Rociletinib (CO-1686, AVL-301), Rociletinib], the inhibition at 10 µM turned out to be 84.9%. Same read-out and setting: for `COc1cc2c(Nc3ccc(Br)cc3F)ncnc2cc1OCC1CCN(C)CC1` [Vandetanib (ZD6474), Vandetanib] the value was 51.2%.

`N#CN1CCCC1` [pyrrolidine-1-carbonitrile]: the inhibition at 10 µM worked out at 65.9%. Turning to `CCNC(=O)Nc1ccc(-c2nc3c(c(N4CCOC[C@@H]4C)n2)CCN(C2COC2)C3)cc1` [GDC-0349], the inhibition at 10 µM turned out to be 83.8%. Turning to `O=C(CC(c1ccccc1)c1ccccc1)N1CCN(C(c2ccccc2)c2ccccc2)CC1` [NP118809], the inhibition at 10 µM was 60.8%.

Take `O=C1NC(=S)NC(=O)C1C(=O)Nc1ccccc1` [merbarone]: the inhibition at 10 µM was 50.4%. As for `COc1ccc(N(C)c2nc(C)nc3ccccc23)cc1` [verubulin], the inhibition at 10 µM is 50.9%. Still for that read-out and setting: with `COc1cc(C)c2c(Oc3cccc(C(F)(F)F)c3)c(OC)cc(NC(C)CCCN)c2n1` (stereo not drawn) [tafenoquine] the figure was 90%; with `Clc1ccc(C(Cn2ccnc2)OCc2ccc(Sc3ccccc3)cc2)c(Cl)c1` (stereo not drawn) [Fenticonazole nitrate], 105%; with `NC(=O)NS(=O)(=O)c1ccc(N)cc1` [SULFACARBAMIDE], 58.1%. For `COc1cccc2cc(-c3nc([C@H]4CC[C@H](C(=O)O)CC4)n4ncnc(N)c34)[nH]c12` [OSI-027], the inhibition at 10 µM is 105%. Still for that read-out and setting: for `CS(=O)(=O)CCNCc1nc(-c2ccc3ncnc(Nc4ccc(OCc5cccc(F)c5)c(Cl)c4)c3c2)cs1` [GW-583340] the value was 60.1%; for `O=C(NO)c1cnc(N2CCN(S(=O)(=O)c3ccc4ccccc4c3)CC2)nc1` [R306465], 57.3%. For `N#C/C(=C1/SCC(c2ccccc2Cl)S1)n1ccnc1` (stereo not drawn) [Lanoconazole], the inhibition at 10 µM amounted to 70.7%. `COC(=O)Nc1nc2ccc(C(=O)c3cccs3)cc2[nH]1` [nocodazole]: the inhibition at 10 µM was found to be 66.1%. Turning to `OCCOc1ccc(/C(=C(/CCCl)c2ccccc2)c2ccccc2)cc1` [Ospemifene], the inhibition at 10 µM amounted to 52.9%.

With `CN1CCN(c2ccc(C(=O)Nc3n[nH]c4ccc(Cc5cc(F)cc(F)c5)cc34)c(NC3CCOCC3)c2)CC1` [Entrectinib (RXDX-101), Entrectinib], the inhibition at 10 µM was found to be 70%. For `CC[C@@]1(O)C(=O)OCc2c1cc1n(c2=O)Cc2cc3ccccc3nc2-1` [camptothecin], the inhibition at 10 µM stood at 81.8%. As for `CC1(C)CC(=O)c2c(C(F)(F)F)nn(-c3ccc(C(N)=O)c(N[C@H]4CC[C@H](O)CC4)c3)c2C1` [SNX-2112], the inhibition at 10 µM turned out to be 96.6%. With `Cc1c(O)cccc1C(=O)N[C@@H](CSc1ccccc1)[C@H](O)CN1C[C@H]2CCCC[C@H]2C[C@H]1C(=O)NC(C)(C)C` [Nelfinavir Mesylate], the IC50 is 2.65 µM and the inhibition at 10 µM was found to be 88.6%. Besides, the IC50 (read-out: pIC50 (converted)) was 2.63 µM.

Take `Clc1ccc(C(Cn2ccnc2)OCc2ccsc2Cl)c(Cl)c1` (stereo not drawn) [TIOCONAZOLE]: the inhibition at 10 µM was 50.6%. Regarding `C[C@H]1C[C@H]2[C@@H]3CCC4=CC(=O)C=C[C@]4(C)[C@@]3(F)[C@@H](O)C[C@]2(C)[C@@]1(O)C(=O)CO` [BETAMETHASONE], the inhibition at 10 µM was determined as 50.6%.

As for `COc1ccc(/C=C/C(=O)O)cc1` [trans-4-Methoxycinnamic-acid], the inhibition at 10 µM came out at 53.6%.

On to `CC(=O)NC(Cc1ccccc1)C(=O)O` (stereo not drawn) [AFALANINE], for which the inhibition at 10 µM stood at 62.1%. `Cc1cc2c(C(C)C)c(O)c(O)c(C=O)c2c(O)c1-c1c(C)cc2c(C(C)C)c(O)c(O)c(C=O)c2c1O` [gossypol]: the inhibition at 10 µM turned out to be 66.3%. As for `C#Cc1cccc(Nc2ncnc3cc4c(cc23)OCCOCCOCCO4)c1` [Icotinib], the inhibition at 10 µM came to 68.1%. Turning to `CCN(CC)CCNc1ccc(CO)c2sc3ccccc3c(=O)c12` [Hycanthone], the inhibition at 10 µM stood at 60.2%. Same read-out and setting: for `CCOc1cc2ncc(C#N)c(Nc3ccc(OCc4cccc(F)c4)c(Cl)c3)c2cc1NC(=O)/C=C/CN(C)C` [HKI-357] the value was 77.7%. For `CCN(CC)Cc1cc(Nc2ccnc3cc(Cl)ccc23)ccc1O` [AMODIAQUINE DIHYDROCHLORIDE], the inhibition at 10 µM amounted to 78.8%.

With `C/C(=N\NC(=S)NNC(=S)Nc1ccccc1Cl)c1ccccn1` [N-(2-chlorophenyl)-2-({(2E)-2-[1-(2-pyridinyl)ethylidene]hydrazino}carbothioyl)hydrazinecarbothioamide], the inhibition at 10 µM came to 101%. For the compound `C[C@@H]([C@@H](O)c1ccc(O)cc1)N1CCC(O)(c2ccccc2)CC1` [CP 101606], the inhibition at 10 µM was found to be 54.3%. Regarding `CN(C)CC[C@H](CSc1ccccc1)Nc1ccc(S(=O)(=O)NC(=O)c2ccc(N3CCN(Cc4ccccc4-c4ccc(Cl)cc4)CC3)cc2)cc1[N+](=O)[O-]` [ABT-737], the inhibition at 10 µM worked out at 63.1%. `CCNC1=Nc2ccc(Cl)cc2C(C)(c2ccccc2)O1` (stereo not drawn) [Etifoxine (hydrochloride)] came in with an IC50 of 9.29 µM. Moreover, for the setting “read-out: pIC50 (converted)”, the IC50 is 9.33 µM.

On to `COc1cc(C(=O)NC2CCN(C)CC2)c(F)cc1Nc1ncc2c(n1)N(C1CCCC1)CC(F)(F)C(=O)N2C` [TAK-960], for which the inhibition at 10 µM stood at 91.6%. On the same count and under the same terms, for `CCCCC(CC)CNC(=N)NC(=N)NCCCCCCNC(=N)NC(=N)NCC(CC)CCCC` (stereo not drawn) [Alexidine dihydrochloride] the value was 76.3%; for `CCOC(=O)Nc1cc2c(c(N)n1)N=C(c1ccccc1)[C@H](C)N2` [mivobulin], 65%. Turning to `C[C@@]1(O)[C@H](O)[C@@H](CO)O[C@H]1n1ccc(N)nc1=O` [NM107, 2′-C-methylcytidine, 2′-C-methylcytidine], the inhibition at 10 µM was 60.1%. Turning to `Clc1ccccc1C(c1ccccc1)(c1ccccc1)n1ccnc1` [CLOTRIMAZOLE], the inhibition at 10 µM stood at 81.7%. Still for that read-out and setting: with `Nc1ccccc1C(=O)O` [anthranilic-acid] the figure was 50%. Take `C[C@H]1O[C@@H](O[C@H]2[C@@H](O)C[C@H](O[C@H]3[C@@H](O)C[C@H](O[C@H]4CC[C@@]5(C)[C@H](CC[C@@H]6[C@@H]5C[C@@H](O)[C@]5(C)[C@@H](C7=CC(=O)OC7)CC[C@]65O)C4)O[C@@H]3C)O[C@@H]2C)C[C@H](O)[C@@H]1O` [DIGOXIN]: the inhibition at 10 µM is 70.6%. With `N[C@H](C(=O)O)c1ccc(O)cc1` [oxfenicine], the inhibition at 10 µM came out at 50.7%. The same measure, in the same setting: with `C=CCNc1c(O)cc2c(O)c1C[C@@H](C)C[C@H](OC)[C@H](O)[C@@H](C)/C=C(\C)[C@H](OC(N)=O)[C@@H](OC)/C=C\C=C(/C)C(=O)N2` [Retaspimycin (Hydrochloride)] the figure was 74.7%; with `CC(C)C[C@H](NC(=O)[C@@H]1CCCN1)C(=O)NCC(N)=O` [prolylleucylglycinamide] (H-Pro-Leu-Gly-NH2), 70.6%. The same measure, in the same setting: with `COc1ccc(S(=O)(=O)N2CCC[C@H]2C(=O)Nc2cc(C)cc(C)c2)cc1` [ACT-462206] the figure was 53.8%. On to `FC(F)c1nc2ccccc2n1-c1nc(N2CCOCC2)nc(N2CCOCC2)n1` [ZSTK474], for which the inhibition at 10 µM came out at 90.9%.

Take `CC(C)Oc1ccc2c(=O)c(-c3ccccc3)coc2c1` [IPRIFLAVONE]: the inhibition at 10 µM turned out to be 51.4%. With `Nc1c2ccccc2nc2ccccc12` [AMINACRINE], the inhibition at 10 µM stood at 64.1%. Regarding `Cc1nc2ccccn2c(=O)c1CCN1CCC(C(=O)c2ccc(F)cc2)CC1` [pirenperone], the inhibition at 10 µM worked out at 64.1%. Turning to `[H]/N=C(\N/C(=N/[H])NCCCCCCNC(=N)NC(=N)Nc1ccc(Cl)cc1)Nc1ccc(Cl)cc1` [CHLORHEXIDINE DIHYDROCHLORIDE], the inhibition at 10 µM was 86.4%.

Consider `COC[C@H](NC(=O)c1cnc(C)s1)C(=O)N[C@@H](COC)C(=O)N[C@@H](Cc1ccccc1)C(=O)[C@@]1(C)CO1` [Oprozomib (ONX 0912), Oprozomib], for which the inhibition at 10 µM worked out at 52.7%. The same measure, in the same setting: with `CC1(C)S[C@@H]2[C@H](N3C(=O)[C@@H](c4ccccc4)NC3(C)C)C(=O)N2[C@H]1C(=O)O` [HETACILLIN POTASSIUM] the figure was 67.1%; with `C[C@]12CC[C@H](O)CC1=CC[C@@H]1[C@@H]2CC[C@]2(C)C(n3cnc4ccccc43)=CC[C@@H]12` [Galeterone (TOK-001), Galeterone], 69%. With `COC(=O)C1=C(C)NC(C)=C(C(=O)O[C@H]2CCN(Cc3ccccc3)C2)[C@H]1c1cccc([N+](=O)[O-])c1` [Barnidipine HCl], the IC50 amounted to 24.3 µM and the inhibition at 10 µM amounted to 83.5%. For the same compound, the IC50 (read-out: pIC50 (converted)) is 24.5 µM. Consider `c1ccc2c(c1)[I+]c1ccccc1-2` [diphenyleneiodonium], for which the inhibition at 10 µM was 55.5%. With `C[N+](C)(C)CC(=O)O` [BETAINE HYDROCHLORIDE], the inhibition at 10 µM is 95.7%. Regarding `CCc1cnn2c(NCc3ccc[n+]([O-])c3)cc(N3CCCC[C@H]3CCO)nc12` [Dinaciclib (SCH727965), Dinaciclib], the inhibition at 10 µM amounted to 79.4%. For the compound `Cc1ccc(Oc2ccccc2-c2csc(N=C3NCCCN3)n2)c(C)c1` [Abafungin], the inhibition at 10 µM turned out to be 92.9%. With `O=C(NC1CCN(CCCCC2(C(=O)NCC(F)(F)F)c3ccccc3-c3ccccc32)CC1)c1ccccc1-c1ccc(C(F)(F)F)cc1` [Lomitapide], the inhibition at 10 µM stood at 77.4%. The same measure, in the same setting: for `C[C@H](/C=C/[C@H](C)C(C)(C)O)[C@H]1CC[C@H]2/C(=C/C=C3C[C@@H](O)C[C@H](O)C3)CCC[C@]12C` [PARICALCITOL] the value was 86%; for `C[C@]12CC[C@H](O)C[C@H]1CC[C@@H]1[C@@H]2C[C@@H](O)[C@]2(C)[C@@H](C3=CC(=O)OC3)CC[C@]12O` [Digoxigenin], 66.8%.
